Measurements: patent publication US6699842B1, “Dominant negative deletion mutants of C-jun and their use in the prevention and treatment of cancer” (The United States of America as represented by the …, priority 1994, dated 2004)

Experiments:
Type in all cases: cell-based, mouse
JB6 P+ Cl 41 cells = experiment: soft agar transformation assay, JB6 P+ Cl 41 cells; settings: 3 ng/ml TPA, 14 days in 0.33% agar, FA 10^−9-10^−7 M, RA 10^−9-10^−6 M
Protocol: (§1) In order to test whether the same concentration ranges of inhibitors shown in FIGS. 2A and 2B to repress TPA-induced AP-1 activity could also block TPA-induced transformation, a soft agar transformation assay was carried out on JB6 P^+ Cl 41 (cross-hatched bar) or JB6 P^+ Cl 41.5a (closed bar) cells exposed in 0.33% agar for 14 days to 0.01% DMSO alone, 3 ng/ml TPA alone (TPA), 10^−7 or 10^−8 M FA alone (FA7 and FA8, respectively), 10^−6 M RA alone (RA6) 3 ng/ml TPA in the presence of 10^−7-10^−9 M FA (TFA7, TFA8, TFA9) or to 3 ng/ml TPA in 10^−6-10^−9 M retinoic acid (TRA6, TRA7, TRA8, TRA9). Treated cells were scored for colonies after 14 days in agar and transformation response was expressed as the number of soft agar colonies/10^4 suspended cells. […] In agreement with an earlier observation by De Benedetti et al. ((1991) Cancer Res., 51:1158-1164), the sensitivity of Cl 41.5a cells to antipromotion by RA appeared to be greater than that observed with the Cl 41 cells. More importantly, the concentration-dependent range of FA effective in blocking TPA-induced transformation appeared identical to that range which was active in blocking TPA-induced CAT activity by FA (10^−9 M to 10^−7 M FA, see TFA7, TFA8 and TFA9 in FIG. 2A). […]

AP-1 = experiment: CAT assay with stromelysin promoter reporter P750TRCAT (AP-1 dependent) in JB6 P+ Cl 41 cells; settings: for inhibition of TPA-induced CAT activity: 8 hours
Text: The plasmid constructs used in the following examples were as follows: P750TRCAT is a CAT reporter construct containing 750 bp of the rat stromelysin promoter driving the heterogolous gene chloramphenicol acetyl-transferase (CAT). This construct contains an AP-1 binding sequence at position −70 (Matrisian, L. M. et al. (1991) Am. J. Medic. Sci., 302: 157-162, Kerr, L. D. et al. (1988) Science., 242: 1424-1427, McDonnell, S. E. et al. (1990) Mol. Cell. Biol. 105 4284-4293). The mTRE-CAT reporter is a site-directed mutant with 2 point mutations in the AP-1 site (Matrisian, L. M. et al. (1991) Am. J. Medic. Sci., 302: 157-162) and the mPEA3-CAT reporter is a site-directed mutant in which point mutations in each of the PEA3 sites at position −208 to −200 and −191 to −199 of the stromelysin promoter were introduced using a protocol provided with the site-directed mutagenesis kit of Amersham Corp. (Arlington Heights, Ill.) and an oligonucleotide having SEQ ID NO.:1 GCAAGAAGCATTTCTTGG.
In brief, JB6 Cl 41 (P^+) cells transfected for 4-5 hours using a standard calcium phosphate transfection procedure (Sambrook, J. et al. (1989) “Molecular Cloning, A Laboratory Manual” Cold Spring Harbor Laboratory Press, Cold Spring Harbor, N.Y.) with 10 μg of one of three CAT reporter plasmid DNAs, P750TRCAT, mTRE-CAT or mPEA3-CAT and 10 μg of sheared genomic DNA isolated from Cl 41 cells were then changed to medium containing 2% fetal calf serum and twenty-four to forty-two hours later, were treated with either 0.1% of DMSO, 10 ng/ml of TPA or 10 ng/ml EGF for eight hours prior to preparation of total cell extracts. CAT enzyme activity was assayed using a diffusion-based CAT assay according to the protocol provided by the manufacturers (New England Nuclear, Del.). The results are expressed as the rate of accumulation of [^14C]-acetylated product relative to solvent controls (DMSO).
In order to determine whether TPA-induced CAT activity in JB6 P^+ cells is capable of being abolished, TPA induced CAT activity was measured in the presence of the known AP-1 inhibitors retinoic acid (RA) and fluocinolone acetonide (FA). In brief, JB6 P^+ Cl 41 cells were transfected with 10 μg of P750TRCAT and 10 μg of sheared genomic DNA from Cl 41 cells as in Example 1. 24-42 hours after transfection, cells were then exposed for 8 hours to either 0.1% DMSO, […] (TPA), 10^−7 M fluocinolone acetonide (FA) in the absence of 10 ng/ml TPA (FA7), 10^−9, 10^−8 and 10^−7 M FA in the presence of 10 ng/ml TPA (TFA9, TFA8, TFA7, respectively), 10^−5 M retinoic acid (RA) in the absence of 10 ng/ml TPA (RA5), or to 10^−7, 10^−6 and 10^−5 M RA in the presence of 10 ng/ml TPA (TRA7, TRA6, TRA5 respectively). Following the above treatments, total cell extracts were prepared and CAT enzyme activity was assayed as in Example 1. As before, the results are expressed as the rate of accumulation of ^14C-acetylated product relative to solvent controls.
In order to determine whether an overexpressed TAM67 protein could repress TPA-induced CAT activity in JB6 P^+ cells, eight TAM67 clonal transfectants (M1-M8) and three neo-only clonal transfectants (N1-N3) were transfected with 10 μg of P750TRCAT reporter plasmid using the standard calcium phosphate protocol described in. Example 1. Forty two hours after transfection with P750TRCAT, the cells were exposed to either 0.01% DMSO (closed bar, FIG. 5A), or 10 ng/ml TPA (crossed-hatched bar, FIG. 5A) or, to water (closed bar, FIG. 5B) or 10 ng/ml EGF (cross-hatched bar, FIG. 5B) for eight hours. Total cell extracts were then prepared from the treated cells and assayed for CAT activity as described in Example 1.

JB6 P+ Cl 41.5a cells = experiment: soft agar transformation assay, JB6 P+ Cl 41.5a cells; settings: 3 ng/ml TPA, 14 days in 0.33% agar, FA 10^−9-10^−7 M, RA 10^−9-10^−6 M
Protocol: as §1

c-Jun = experiment: immunoprecipitation and densitometry of c-Jun protein in stable JB6 transfectants; settings: 10 ng/ml, fifteen hours, TAM67 or Neo-only transfectants
Protocol: Three TAM67 clonal transfectants (M4, M3, M6) and one neo-only clonal transfectant (N1) were treated for fifteen hours with either 10 ng/ml TPA (T), 10 ng/ml EGF (E), or 0.1% DMSO (D) prior to metabolic labelling for two hours with 0.2 mCi/ml ^35S -methionine (Amersham, Rockford, Ill.) (Sun, Y. et al. (1993) Mol. Carcinogenesis, 8: 49-57). Cellular lysates were then collected and immunoprecipitations using polyclonal rabbit c-jun antibody (AB-1 antibody, Oncogene Science) were carried out overnite at 4° C. (Sun et al. (1993)). These immunoprecipitates were then analyzed by electrophoresis on 12.5% SDS polyacrylamide gels and these gels are shown in FIG. 4.

For `CC1(C)O[C@@H]2C[C@H]3[C@@H]4C[C@H](F)C5=CC(=O)C=C[C@]5(C)[C@@]4(F)[C@@H](O)C[C@]3(C)[C@]2(C(=O)CO)O1` [FA, Fluocinolone acetonide], which “TPA-induced transformation (soft agar colonies/10^4 suspended cells)” value (JB6 P+ Cl 41 cells) is on record?
The value was “blocked TPA-induced transformation in a concentration-dependent manner”.

And the “inhibition of TPA-induced CAT activity” value (AP-1; 10^−9-10^−7 M FA with 10 ng/ml TPA, P750TRCAT)?
The value was “dose-dependent inhibition”.

And the “TPA-induced transformation (soft agar colonies/10^4 suspended cells)” value (JB6 P+ Cl 41.5a cells)?
The value was “blocked TPA-induced transformation in a concentration-dependent manner”.

How did the “inhibition of TPA-induced CAT activity” value (AP-1; 10^−7-10^−5 M RA with 10 ng/ml TPA, P750TRCAT) turn out when `CC1=C(/C=C/C(C)=C/C=C/C(C)=C/C(=O)O)C(C)(C)CCC1` [RA, retinoic acid] was run?
The value was 90-100%.

What does the source list for `CCCCCCCCCCCCCC(=O)O[C@@H]1[C@@H](C)[C@@]2(O)[C@@H](C=C(CO)C[C@]3(O)C(=O)C(C)=C[C@@H]23)[C@@H]2C(C)(C)[C@]12OC(C)=O` [TPA, 12-O-tetradecanoyl phorbol 13-acetate]?
increase in AP-1 dependent CAT activity in neo-only transfectants (AP-1; 10 ng/ml, eight hours, N1-N3 transfectants, P750TRCAT): 3 to 4.5 fold; CAT activity relative to uninduced cells, P750TRCAT reporter (AP-1; 10 ng/ml, eight hours, P750TRCAT-transfected JB6 P+ Cl 41 cells): about 2 fold; CAT activity relative to uninduced cells, mPEA3-CAT reporter (AP-1; 10 ng/ml, eight hours, mPEA3-CAT-transfected JB6 P+ Cl 41 cells (PEA3 sites mutated)): about 2 fold; inducibility of CAT activity, mTRE-CAT reporter (AP-1; 10 ng/ml, eight hours, mTRE-CAT-transfected cells (AP-1 binding site mutated)): loss of inducibility; c-Jun protein levels (43 kDa band, densitometric analysis) (c-Jun): no significant differences
